From patent US6482438B1, “Apparatus and process for preparing crystalline particles” (SmithKline Beecham Corporation, priority 1998, dated 2002)
Each block holds one compound with its values, some of them ahead of it.

Assays:
[1] = Malvern laser diffraction particle sizing (Mastersizer S) of crystalline salmeterol xinafoate particles; format: physicochemical; settings: methanol solution 7 ml/min
Method: A continuous flow reaction cell with 2 diametrically opposite inlets at the bottom and a run-out ca. half way up the side of the vessel is used in the experiment. […] The drug substance (salmeterol xinafoate) is dissolved in methanol (6 vol) at elevated temperature
(65° C.). A solution of salmeterol xinafoate (0.276 M) is then pumped (a fixed rate of 7 ml/min) using a peristaltic pump into one of the bottom inlets of the reaction cell. Cold water was similarly pumped via the other inlet from a water reservoir using a second pump at rates as dictated by the experimental design.
Re-crystallisations are carried out from various mixtures of methanol and water as dictated by the parameters set out in the experimental design. Efficient mixing of the two streams is ensured with the aid of a non-grinding magnetic stirrer bar. The stirrer speed is maintained constant at all times. The stir speed is set at such a rate so as to induce a minimum amount of vortex.
(§1) Before carrying out any particular crystallisation, the cell is pre-charged with a mixture of methanol/water (the ratio of each being the same as the relative pumping rates from the two reservoirs). By doing this, the relative concentrations of the water to methanol remains constant throughout the crystallisation. The tip of the sono-probe is arranged so that it is just above the inlet for the salmeterol solution. When the magnetic stirrer, sono-probe and pumps are turned on, rapid onset of crystallisation takes place. A suspension of the crystallisation mixture exits via the overflow directly on to a filter funnel thus minimising the opportunity for further crystal growth.
(§2) Using the above set-up, the experiments set out in the experimental design shown below were carried out and the samples of damp solid harvested and dried in vacuo at ambient temperature. All the samples were sized using the Malvern laser diffraction particle sizer and the results analysed using multi-dimensional model fitting software (such as Design Expert 5).
Ultrasound Power is given as a percentage of maximum (600 W). Ultrasound frequency was 22 kHz.
(§3) Samples were analysed using Malvern laser diffraction particle sizing.
Instrument: Malvern Mastersizer S
Lens: 300 mm Reverse Fourier
Analysis: presentation code 30 GE
(§4) Dispersant: Iso Octane / Lecithin 0.05% w/w
Pre dispersion: Sonicate for 1 Minute
(§5) One analysis per sample was carried out. The median particle size (D50), particle size at 90% undersize (D90) and particle size at 10 % undersize (D10) were used as responses to characterise the medium, course, and fine particles. In addition a fourth response, uniformity index (Ul) was calculated as a measure of the breadth of the distribution.
Uniformity Index (Ul) is calculated as 100×D 10/D90.

[2] = Malvern laser diffraction particle sizing (Mastersizer X) of crystalline fluticasone propionate particles; format: physicochemical
Method: A continuous flow reaction cell with 2 diametrically opposite inlets at the bottom and a run-out ca. half way up the side of the vessel is used in the experiment. The drug substance (fluticasone propionate, FP) is dissolved in acetone (15 vol, 0.133 M) at elevated temperature (50-56° C.) and then allowed to cool to ambient temperature (20° C.). A solution of FP is then pumped using a peristaltic pump into one of the bottom inlets of the reaction cell. Water was similarly pumped via the other inlet from a water reservoir using a second pump.
Re-crystallisations are carried out from various mixtures of acetone and water (by altering the flow rates of each) as dictated by the parameters set out in the experimental design. Efficient mixing of the two streams is ensured with the aid of a non-grinding magnetic stirrer bar.
as §1, with “acetone/water” for “methanol/water”, “acetone” for “methanol”, “FP” for “salmeterol”
as §2
Ultrasound Power is given as a percentage of maximum (50 W). Ultrasound frequency was 22 kHz.
as §3
Instrument: Malvern Mastersizer X
Lens: 45 mm Reverse Fourier
Analysis: 0607 presentation code
as §4
Pre dispersion: Sonicate for 10 seconds
as §5, with “10%” for “10 %”
Uniformity Index (Ul) is calculated as 100×D10/D90.

[3] = Run 1: water 14 ml/min, ultrasound 10.00 % of 600 W
[4] = Run 2: water 56 ml/min, ultrasound 10.00 % of 600 W
[5] = Run 3: water 56 ml/min, ultrasound 90.00 % of 600 W
[6] = Run 4: water 56 ml/min, ultrasound 90.00 % of 600 W
[7] = Run 5: water 56 ml/min, ultrasound 10.00 % of 600 W
[8] = Run 6: water 14 ml/min, ultrasound 10.00 % of 600 W
[9] = Run 7: water 35 ml/min, ultrasound 50.00 % of 600 W
[10] = Run 8: water 14 ml/min, ultrasound 90.00 % of 600 W
[11] = Run 9: water 35 ml/min, ultrasound 50.00 % of 600 W
[12] = Run 10: water 14 ml/min, ultrasound 90.00 % of 600 W
[13] = Run 1: water 24 ml/min, acetone solution 3.50 ml/min, stirring 40.00 %, ultrasound 0.00 % of 50 W
[14] = Run 2: water 18 ml/min, acetone solution 5.25 ml/min, stirring 20.00 %, ultrasound 20.00 % of 50 W
[15] = Run 3: water 24 ml/min, acetone solution 3.50 ml/min, stirring 0.00 %, ultrasound 40.00 % of 50 W
[16] = Run 4: water 12 ml/min, acetone solution 7.00 ml/min, stirring 0.00 %, ultrasound 40.00 % of 50 W
[17] = Run 5: water 24 ml/min, acetone solution 7.00 ml/min, stirring 40.00 %, ultrasound 40.00 % of 50 W
[18] = Run 6: water 18 ml/min, acetone solution 5.25 ml/min, stirring 20.00 %, ultrasound 20.00 % of 50 W
[19] = Run 7: water 12 ml/min, acetone solution 3.50 ml/min, stirring 0.00 %, ultrasound 0.00 % of 50 W
[20] = Run 8: water 12 ml/min, acetone solution 7.00 ml/min, stirring 40.00 %, ultrasound 0.00 % of 50 W
[21] = Run 9: water 12 ml/min, acetone solution 3.50 ml/min, stirring 40.00 %, ultrasound 40.00 % of 50 W
[22] = Run 10: water 24 ml/min, acetone solution 7.00 ml/min, stirring 0.00 %, ultrasound 0.00 % of 50 W

D10 particle size at 10% undersize [1, 3]: 1.6 μm
D50 median particle size [1, 3]: 10.1 μm
D90 particle size at 90% undersize [1, 3]: 24.78 μm
UI uniformity index (100×D10/D90) [1, 3]: 6.46%
D10 particle size at 10% undersize [1, 4]: 0.48 μm
D50 median particle size [1, 4]: 3.9 μm
D90 particle size at 90% undersize [1, 4]: 10.21 μm
UI uniformity index (100×D10/D90) [1, 4]: 4.70%
D10 particle size at 10% undersize [1, 5]: 0.64 μm
D50 median particle size [1, 5]: 4.24 μm
D90 particle size at 90% undersize [1, 5]: 14.45 μm
UI uniformity index (100×D10/D90) [1, 5]: 4.42%
D10 particle size at 10% undersize [1, 6]: 0.53 μm
D50 median particle size [1, 6]: 4.29 μm
D90 particle size at 90% undersize [1, 6]: 17.62 μm
UI uniformity index (100×D10/D90) [1, 6]: 3.01%
D10 particle size at 10% undersize [1, 7]: 0.39 μm
D50 median particle size [1, 7]: 4.74 μm
D90 particle size at 90% undersize [1, 7]: 16.8 μm
UI uniformity index (100×D10/D90) [1, 7]: 2.32%
D10 particle size at 10% undersize [1, 8]: 2.17 μm
D50 median particle size [1, 8]: 11.09 μm
D90 particle size at 90% undersize [1, 8]: 23.37 μm
UI uniformity index (100×D10/D90) [1, 8]: 9.28%
D10 particle size at 10% undersize [1, 9]: 1.08 μm
D50 median particle size [1, 9]: 4.75 μm
D90 particle size at 90% undersize [1, 9]: 13.45 μm
UI uniformity index (100×D10/D90) [1, 9]: 8.03%
D10 particle size at 10% undersize [1, 10]: 1.63 μm
D50 median particle size [1, 10]: 6.37 μm
D90 particle size at 90% undersize [1, 10]: 20.37 μm
UI uniformity index (100×D10/D90) [1, 10]: 8.00%
D10 particle size at 10% undersize [1, 11]: 1.88 μm
D50 median particle size [1, 11]: 4.99 μm
D90 particle size at 90% undersize [1, 11]: 11.76 μm
UI uniformity index (100×D10/D90) [1, 11]: 15.99%
D10 particle size at 10% undersize [1, 12]: 1.77 μm
D50 median particle size [1, 12]: 7.86 μm
D90 particle size at 90% undersize [1, 12]: 24.96 μm
UI uniformity index (100×D10/D90) [1, 12]: 7.09%
Structure (SMILES): OCc1cc(C(O)CNCCCCCCOCCCCc2ccccc2)ccc1O (centres unmarked) [salmeterol xinafoate]

D10 particle size at 10% undersize [2, 13]: 1.07 μm
D50 median particle size [2, 13]: 4.95 μm
D90 particle size at 90% undersize [2, 13]: 18.91 μm
UI uniformity index (100×D10/D90) [2, 13]: 5.7%
D10 particle size at 10% undersize [2, 14]: 1.02 μm
D50 median particle size [2, 14]: 4.56 μm
D90 particle size at 90% undersize [2, 14]: 14.29 μm
UI uniformity index (100×D10/D90) [2, 14]: 7.1%
D10 particle size at 10% undersize [2, 15]: 1 μm
D50 median particle size [2, 15]: 4.2 μm
D90 particle size at 90% undersize [2, 15]: 18.3 μm
UI uniformity index (100×D10/D90) [2, 15]: 5.3%
D10 particle size at 10% undersize [2, 16]: 2.62 μm
D50 median particle size [2, 16]: 7.52 μm
D90 particle size at 90% undersize [2, 16]: 20.83 μm
UI uniformity index (100×D10/D90) [2, 16]: 12.6%
D10 particle size at 10% undersize [2, 17]: 1.05 μm
D50 median particle size [2, 17]: 4.3 μm
D90 particle size at 90% undersize [2, 17]: 14.66 μm
UI uniformity index (100×D10/D90) [2, 17]: 7.2%
D10 particle size at 10% undersize [2, 18]: 0.89 μm
D50 median particle size [2, 18]: 5.28 μm
D90 particle size at 90% undersize [2, 18]: 17.16 μm
UI uniformity index (100×D10/D90) [2, 18]: 5.1%
D10 particle size at 10% undersize [2, 19]: 2.32 μm
D50 median particle size [2, 19]: 9.34 μm
D90 particle size at 90% undersize [2, 19]: 28.97 μm
UI uniformity index (100×D10/D90) [2, 19]: 8%
D10 particle size at 10% undersize [2, 20]: 1.06 μm
D50 median particle size [2, 20]: 3.46 μm
D90 particle size at 90% undersize [2, 20]: 9.33 μm
UI uniformity index (100×D10/D90) [2, 20]: 11.4%
D10 particle size at 10% undersize [2, 21]: 0.97 μm
D50 median particle size [2, 21]: 3.67 μm
D90 particle size at 90% undersize [2, 21]: 11.47 μm
UI uniformity index (100×D10/D90) [2, 21]: 8.5%
D10 particle size at 10% undersize [2, 22]: 1.48 μm
D50 median particle size [2, 22]: 9.79 μm
D90 particle size at 90% undersize [2, 22]: 37.62 μm
UI uniformity index (100×D10/D90) [2, 22]: 3.9%
Structure (SMILES): CCC(=O)O[C@]1(C(=O)SCF)[C@H](C)C[C@H]2[C@@H]3C[C@H](F)C4=CC(=O)C=C[C@]4(C)[C@@]3(F)[C@@H](O)C[C@@]21C [fluticasone propionate]
